How the values were obtained:
Test in all cases: fitness (endpoint OD595 vs no drug) (fraction); higher = more growth
[1] = system: B. subtilis 168
How it was run: (§1)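 Bacterial fitness was scored as optical density at the stationary-phase transition relative to the robust mean of no-drug control wells. Scores are capped at 1. The growth data were OD595 readings every 30 min for 14 h at 37 °C, background-subtracted against the first reading, from 384-well plates inoculated at OD595 0.01 in TSB, LB Lennox or CY.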

[2] = system: S. aureus DSM 20231
How it was run: as §1

[3] = system: S. pneumoniae D39V
How it was run: as §1
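Also: OD595 on entry to stationary phase over no-drug wells; at most 1.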

CN(C)[C@@H]1C(O)=C(C(N)=O)C(=O)[C@@]2(O)C(O)=C3C(=O)c4c(O)ccc(Cl)c4[C@@](C)(O)[C@H]3C[C@@H]12 [Chlortetracycline] + N[C@@H]1CONC1=O [Cycloserine D]
fitness
Conditions	first compound 0.012 µg/mL	first compound 0.024 µg/mL	first compound 0.0475 µg/mL	first compound 0.048 µg/mL	first compound 0.095 µg/mL	first compound 0.19 µg/mL
[1], partner 0.125 µg/mL	–	–	0.936	–	0.784	0.515
[1], partner 0.25 µg/mL	–	–	0.894	–	0.782	0.439
[1], partner 0.5 µg/mL	–	–	0.899	–	0.764	0.515
[2], partner 0.375 µg/mL	0.667	0.241	–	0.0627	–	–
[2], partner 0.75 µg/mL	0.623	0.249	–	0.0661	–	–
[2], partner 1.5 µg/mL	0.68	0.264	–	0.0906	–	–

[2], first compound 0.006 µg/mL, one replicate
Conditions	fitness
partner 0.375 µg/mL	0.804
partner 0.75 µg/mL	0.782
partner 1.5 µg/mL	0.804

CN(C)[C@@H]1C(O)=C(C(N)=O)C(=O)[C@@]2(O)C(O)=C3C(=O)c4c(O)ccc(Cl)c4[C@@](C)(O)[C@H]3C[C@@H]12 [Chlortetracycline] + COc1cccc2c1C(=O)c1c(O)c3c(c(O)c1C2=O)C[C@@](O)(C(=O)CO)C[C@@H]3O[C@H]1C[C@H](N)[C@H](O)[C@H](C)O1 [Doxorubicin]
Conditions	fitness
[1], first compound 0.0475 µg/mL, partner 0.625 µg/mL	0.895
[1], first compound 0.0475 µg/mL, partner 1.25 µg/mL	0.845
[1], first compound 0.0475 µg/mL, partner 2.5 µg/mL	0.717
[1], first compound 0.095 µg/mL, partner 0.625 µg/mL	0.789
[1], first compound 0.095 µg/mL, partner 1.25 µg/mL	0.775
[1], first compound 0.095 µg/mL, partner 2.5 µg/mL	0.56
[1], first compound 0.19 µg/mL, partner 0.625 µg/mL	0.44
[1], first compound 0.19 µg/mL, partner 1.25 µg/mL	0.404
[1], first compound 0.19 µg/mL, partner 2.5 µg/mL	0.256
[2], first compound 0.012 µg/mL, partner 0.625 µg/mL	0.632
[2], first compound 0.012 µg/mL, partner 1.25 µg/mL	0.671
[2], first compound 0.012 µg/mL, partner 2.5 µg/mL	0.54
[2], first compound 0.024 µg/mL, partner 0.625 µg/mL	0.346
[2], first compound 0.024 µg/mL, partner 1.25 µg/mL	0.358
[2], first compound 0.048 µg/mL, partner 0.625 µg/mL	0.135
[2], first compound 0.048 µg/mL, partner 1.25 µg/mL	0.1
[2], first compound 0.048 µg/mL, partner 2.5 µg/mL	0.0901
[3], first compound 0.012 µg/mL, partner 0.25 µg/mL	0.829
[3], first compound 0.012 µg/mL, partner 0.5 µg/mL	0.797
[3], first compound 0.012 µg/mL, partner 1 µg/mL	0.714
[3], first compound 0.024 µg/mL, partner 0.25 µg/mL	0.512
[3], first compound 0.024 µg/mL, partner 0.5 µg/mL	0.458
[3], first compound 0.024 µg/mL, partner 1 µg/mL	0.451
[3], first compound 0.048 µg/mL, partner 0.25 µg/mL	0.175
[3], first compound 0.048 µg/mL, partner 0.5 µg/mL	0.221
[3], first compound 0.048 µg/mL, partner 1 µg/mL	0.179
[3], first compound 0.375 µg/mL, partner 0.25 µg/mL	0.0266
[3], first compound 0.375 µg/mL, partner 0.5 µg/mL	0.016
[3], first compound 0.375 µg/mL, partner 1 µg/mL	0.0403
[3], first compound 0.75 µg/mL, partner 0.25 µg/mL	0.031
[3], first compound 0.75 µg/mL, partner 0.5 µg/mL	0.0286
[3], first compound 0.75 µg/mL, partner 1 µg/mL	0.0402
[3], first compound 1.5 µg/mL, partner 0.25 µg/mL	0.0296
[3], first compound 1.5 µg/mL, partner 0.5 µg/mL	0.0259
[3], first compound 1.5 µg/mL, partner 1 µg/mL	0.052

[2], first compound 0.006 µg/mL, one replicate
Conditions	fitness
partner 0.625 µg/mL	0.719
partner 1.25 µg/mL	0.685
partner 2.5 µg/mL	0.64

CN(C)[C@@H]1C(O)=C(C(N)=O)C(=O)[C@@]2(O)C(O)=C3C(=O)c4c(O)ccc(Cl)c4[C@@](C)(O)[C@H]3C[C@@H]12 [Chlortetracycline] + CCN(CC)CCOC(=O)c1ccc(N)cc1 [Procaine]
fitness
Conditions	partner 85.5 µg/mL	partner 171 µg/mL	partner 342 µg/mL
[1], first compound 0.0475 µg/mL	0.908	0.855	0.878
[1], first compound 0.095 µg/mL	0.695	0.699	0.703
[1], first compound 0.19 µg/mL	–	0.528	–
[2], first compound 0.012 µg/mL	0.568	0.615	0.613
[2], first compound 0.024 µg/mL	0.23	0.2	0.2
[2], first compound 0.048 µg/mL	0.0791	0.058	0.0382
[3], first compound 0.375 µg/mL	0.0458	0.0259	0.0318
[3], first compound 0.75 µg/mL	0.055	0.0347	0.0395
[3], first compound 1.5 µg/mL	0.0277	0.0174	0.0396

fitness, one replicate
Conditions	partner 85.5 µg/mL	partner 171 µg/mL	partner 342 µg/mL
[2], first compound 0.006 µg/mL	0.713	0.8	0.737
[3], first compound 0.012 µg/mL	0.95	0.897	0.929
[3], first compound 0.024 µg/mL	0.921	0.835	0.86
[3], first compound 0.048 µg/mL	0.835	0.726	0.736

CC(=O)Oc1ccccc1C(=O)O [Acetylsalicylic acid] + COc1cccc2c1C(=O)c1c(O)c3c(c(O)c1C2=O)C[C@@](O)(C(=O)CO)C[C@@H]3O[C@H]1C[C@H](N)[C@H](O)[C@H](C)O1 [Doxorubicin]
fitness
Conditions	first compound 250 µg/mL	first compound 500 µg/mL	first compound 1000 µg/mL
[2], partner 0.625 µg/mL	0.835	0.759	0.607
[2], partner 1.25 µg/mL	0.798	0.725	–
[2], partner 2.5 µg/mL	0.783	0.71	0.586
[3], partner 0.25 µg/mL	0.94	0.893	0.724
[3], partner 0.5 µg/mL	0.945	0.904	0.751
[3], partner 1 µg/mL	0.889	0.882	0.763

CN(C)[C@@H]1C(O)=C(C(N)=O)C(=O)[C@@]2(O)C(O)=C3C(=O)c4c(O)ccc(Cl)c4[C@@](C)(O)[C@H]3C[C@@H]12 [Chlortetracycline] + Cn1nnc(-c2ccc(-c3ccc(N4C[C@H](CO)OC4=O)cc3F)cn2)n1 [Tedizolid]
[2], first compound 0.006 µg/mL, one replicate
Conditions	fitness
partner 0.0625 µg/mL	0.696
partner 0.125 µg/mL	0.659
partner 0.25 µg/mL	0.361

fitness
Conditions	first compound 0.012 µg/mL	first compound 0.024 µg/mL	first compound 0.048 µg/mL	first compound 0.375 µg/mL	first compound 0.75 µg/mL	first compound 1.5 µg/mL
[2], partner 0.0625 µg/mL	0.496	0.236	0.0517	–	–	–
[2], partner 0.125 µg/mL	0.532	0.172	0.0562	–	–	–
[2], partner 0.25 µg/mL	0.25	0.161	0.102	–	–	–
[3], partner 0.03125 µg/mL	0.966	0.949	0.944	–	–	–
[3], partner 0.0625 µg/mL	0.95	0.962	0.878	–	–	–
[3], partner 0.125 µg/mL	0.795	0.789	0.845	0.0202	0.0366	0.0518
[3], partner 0.25 µg/mL	–	–	–	0.0375	0.043	0.0385
[3], partner 0.5 µg/mL	–	–	–	0.0294	0.0348	0.0435
